The target in the test is mouse TRPM3α2 (mTRPM3) ion channel (Mus musculus (Mouse), UniProt J9SQF3). The experiment in a line: TRPM3 ion channel driven Ca2+ uptake, Fluo-4 AM assay, mTRPM3alpha2 overexpressing flip-in HEK293 cells stimulated with pregnenolone sulfate. The test is classed as cell-based. The method, then: Part B Monitoring the TRPM3 Ion Channel Driven Ca^2+ Uptake.
In order to monitor the inhibition of the mouse TRPM3α2 (mTRPM3) ion channel by the compounds of the invention, a cellular system making use of an mTRPM3alpha2 or hTRPM3 overexpressing cell line (flip-in HEK293) was used. The TRPM3 channel was stimulated/opened with Pregnenolone sulfate (PS) (50 μM) which results in Ca^2+ influx.
For mTRPM3, the intracellular Ca^2+ was measured with a Calcium responsive dye. Fluor-4 AM ester (Invitrogen). Cells were cultured until a confluence of 80-90%, washed with Versene (Invitrogen) and detached from the surface by a short incubation with 0.05% Trypsin (Invitrogen). The trypsination process was stopped by the addition of complete cell culture medium (DMEM, glutamax, 10% FCS,NEAA,Pen-Strep). Cells were collected and resuspended in Krebs buffer without Calcium at RT.
Prior the cell seeding (±2000 cells/well into a black, 384 well plate (Greiner)) the diluted compound was added in the assay plate, together with the PS dissolved in Krebs buffer containing Calcium. […] Directly after cell addition the plates were read on an Envision fluorescence reader (Perkin Elmer) by an Excitation of 485 nm and emission at 535 nm.
Channel inhibition was calculated compared to a non-PS stimulated control versus a condition stimulated with PS (50 μM) with vehicle. The ability of the compounds of the invention to inhibit this activity was determined as: Percentage inhibition=[1-((RFU determined for sample with test compound present—RFU determined for sample with positive control inhibitor) divided by (RFU determined in the presence of vehicle—RFU determined for sample with positive control inhibitor))]*100.

The mark [1] stands for this setting: PS (50 μM) stimulated, cpd 001-199.
Setting [2] is: PS (50 μM) stimulated, cpds. 500-599.
Where [3] appears, read: PS (50 μM) stimulated, cpds. 400-499.
Where [4] appears, read: PS (50 μM) stimulated, cpds. 667-751.

Sequence of mouse TRPM3α2 (mTRPM3) ion channel (J9SQF3 other isoform, or with tags, fused parts or gaps): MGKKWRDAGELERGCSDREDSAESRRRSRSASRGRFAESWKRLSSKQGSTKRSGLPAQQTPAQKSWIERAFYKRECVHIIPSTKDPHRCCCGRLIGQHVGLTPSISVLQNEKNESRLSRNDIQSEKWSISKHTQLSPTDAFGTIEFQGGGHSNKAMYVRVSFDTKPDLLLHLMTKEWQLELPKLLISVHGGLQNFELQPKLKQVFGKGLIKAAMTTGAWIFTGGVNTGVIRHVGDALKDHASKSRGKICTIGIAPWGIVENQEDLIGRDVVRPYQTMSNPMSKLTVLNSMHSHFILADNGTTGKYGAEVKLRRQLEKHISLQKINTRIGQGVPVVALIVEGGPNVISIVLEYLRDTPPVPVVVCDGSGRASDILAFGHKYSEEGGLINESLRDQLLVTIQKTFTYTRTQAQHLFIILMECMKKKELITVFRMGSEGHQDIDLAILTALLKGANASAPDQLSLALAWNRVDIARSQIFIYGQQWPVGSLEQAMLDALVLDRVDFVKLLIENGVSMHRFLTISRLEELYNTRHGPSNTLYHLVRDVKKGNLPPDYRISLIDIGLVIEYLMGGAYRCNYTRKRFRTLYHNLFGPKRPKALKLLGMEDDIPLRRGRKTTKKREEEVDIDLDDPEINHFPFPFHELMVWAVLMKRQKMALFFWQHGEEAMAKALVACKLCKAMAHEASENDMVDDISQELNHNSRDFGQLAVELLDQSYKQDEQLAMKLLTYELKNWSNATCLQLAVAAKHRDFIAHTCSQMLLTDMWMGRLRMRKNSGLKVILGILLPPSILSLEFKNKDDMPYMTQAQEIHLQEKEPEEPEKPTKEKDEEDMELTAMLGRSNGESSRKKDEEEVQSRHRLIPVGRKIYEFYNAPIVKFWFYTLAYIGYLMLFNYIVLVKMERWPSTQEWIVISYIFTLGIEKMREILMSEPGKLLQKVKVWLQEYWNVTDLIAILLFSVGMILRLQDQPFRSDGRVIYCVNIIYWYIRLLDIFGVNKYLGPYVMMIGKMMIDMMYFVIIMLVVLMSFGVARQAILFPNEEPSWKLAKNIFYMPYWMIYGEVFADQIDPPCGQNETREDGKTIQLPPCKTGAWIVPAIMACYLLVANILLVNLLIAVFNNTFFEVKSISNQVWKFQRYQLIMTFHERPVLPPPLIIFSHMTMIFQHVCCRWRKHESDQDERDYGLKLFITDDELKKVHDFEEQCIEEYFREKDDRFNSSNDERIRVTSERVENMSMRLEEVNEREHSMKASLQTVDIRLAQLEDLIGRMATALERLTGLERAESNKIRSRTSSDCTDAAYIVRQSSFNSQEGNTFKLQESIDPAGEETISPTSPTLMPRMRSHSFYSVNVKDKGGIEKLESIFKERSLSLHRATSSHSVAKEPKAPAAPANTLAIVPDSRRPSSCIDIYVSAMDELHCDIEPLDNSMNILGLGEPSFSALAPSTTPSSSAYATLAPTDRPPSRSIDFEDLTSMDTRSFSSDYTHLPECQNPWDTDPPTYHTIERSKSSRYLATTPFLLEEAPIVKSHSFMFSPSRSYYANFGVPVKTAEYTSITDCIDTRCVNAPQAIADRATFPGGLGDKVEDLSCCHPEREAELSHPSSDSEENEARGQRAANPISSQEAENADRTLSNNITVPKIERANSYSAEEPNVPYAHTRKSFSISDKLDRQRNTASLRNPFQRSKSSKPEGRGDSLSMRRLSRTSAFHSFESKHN

For `Cc1oc2ccc(OCc3cccnc3C(F)(F)F)cc2c1C(=O)OCC1(N)CCOC1` (stereo not shown) [compound 170, (3-aminotetrahydrofuran-3-yl)methyl 2-methyl-5-((2-(trifluoromethyl)pyridin-3-yl)methoxy) -benzofuran-3-carboxylate], the IC50 (as a rule, the point on the concentration scale where inhibition reaches its midpoint) under setting [1] is under 1 µM.

Regarding `CNC(=O)CNC(=O)c1c(C)oc2ccc(OCc3scnc3C)cc12` [compound 321, 2-methyl-N-(2-(methylamino)-2-oxoethyl)-5-((4-methylthiazol-5-yl)methoxy)benzofuran-3-carboxamide], the IC50 (PS 50 μM, cpds 300-399) is under 1 µM.

`COc1ncccc1COc1ccc2oc(C)c(C(=O)NC3(CO)CCOCC3)c2c1` [compound 058, N-(4-(hydroxymethyl)tetrahydro-2H-pyran-4-yl)-5-((2-methoxypyridin-3-yl)methoxy)-2-methyl-benzofuran-3-carboxamide] returned an IC50 under setting [1] of under 1 µM.

Turning to `Cc1oc2ccc(OCc3c(F)cnn3C)cc2c1C(=O)N[C@H](C(N)=O)[C@@H](C)O` [compound 383, N-((2S,3R)-1-amino-3-hydroxy-1-oxobutan-2-yl)-5-((4-fluoro-1-methyl-1H-pyrazol-5-yl)methoxy)-2-methylbenzofuran-3-carboxamide], the IC50 (PS 50 μM, cpds 300-399) was under 1 µM.

The molecule `Cc1ncsc1COc1ccc2oc(C)c(C(=O)NCCNS(C)(=O)=O)c2c1` [compound 322, 2-methyl-N-(2-(methylsulfonamido)ethyl)-5-((4-methylthiazol-5-yl)methoxy)benzofuran-3-carboxamide] registered an IC50 (PS 50 μM, cpds 300-399) of under 1 µM.

`Cc1oc2ccc(OCc3cccnc3O)cc2c1C(=O)NC1(CO)CCOC1` (single isomer, unassigned) [cpd 535-En 1] yielded an IC50 under setting [2] of under 1 µM.

Consider `Cc1ncc(COc2ccc3oc(C)c(C(=O)NCC4(F)CC4)c3c2)s1` [compound 372, N-((1-fluorocyclopropyl)methyl)-2-methyl-5-((2-methylthiazol-5-yl)methoxy)benzofuran-3-carboxamide], for which, under “PS 50 μM, cpds 300-399”, the IC50 is under 1 µM.

On to `Cc1ccc(COc2ccc3oc(C)c(C(=O)NC4CCNCC4(F)F)c3c2)nn1` (single isomer, unassigned) [cpd 556-En 1], for which the IC50 under setting [2] fell in the range of 1 to 20 µM.

In turn, `Cc1oc2ccc(OCc3ccnn3C)cc2c1C(=O)NC(C)(C)CO` [compound 482, N-(1-hydroxy-2-methylpropan-2-yl)-2-methyl-5-((1-methyl-1H-pyrazol-5-yl)methoxy)benzofuran-3-carboxamide] registered an IC50 under setting [3] of under 1 µM.

For `Cc1oc2ccc(OCc3ccnn3CC(F)(F)F)cc2c1C(=O)N[C@@H](CO)C(N)=O` [compound 688, (S)-N-(1-Amino-3-hydroxy-1-oxopropan-2-yl)-2-methyl-5-((1-(2,2,2-trifluoroethyl)-1H-pyrazol-5-yl)methoxy)benzofuran-3-carboxamide], the IC50 under setting [4] is under 1 µM.

For `Cc1oc2cc(C#N)c(OCc3cccnc3C(F)(F)F)cc2c1C(=O)NC1CCNCC1(F)F` (single isomer, unassigned) [195-En 1, 6-cyano-N-(3,3-difluoropiperidin-4-yl)-2-methyl-5-((2-(trifluoromethyl)pyridin-3-yl)methoxy) -benzofuran-3-carboxamide], the IC50 under setting [1] is over 20 µM.

Molecule `Cc1ncsc1COc1ccc2oc(C)c(C(=O)Nc3ccn(C)n3)c2c1` [compound 161, 2-methyl-N-(1-methyl-1H-pyrazol-3-yl)-5-((4-methylthiazol-5-yl)methoxy)benzofuran-3-carboxamide] yielded an IC50 under setting [1] of under 1 µM.

As for `Cc1nc(C)c(COc2ccc3oc(C)c(C(=O)N[C@@H](CO)C(N)=O)c3c2)s1` [compound 298, (S)-N-(1-amino-3-hydroxy-1-oxopropan-2-yl)-5-((2,4-dimethylthiazol-5-yl)methoxy)-2-methylbenzofuran-3-carboxamide], under “PS 50 μM, cpds 200-299”, the IC50 was under 1 µM.

Under setting [1], `Cc1oc2ccc(OCc3cccnc3C(F)(F)F)cc2c1C(=O)NC1CN(C)CC1(F)F` (single isomer, unassigned) [124-En 1, N-(4,4-difluoro-1-methylpyrrolidin-3-yl)-2-methyl-5-((2-(trifluoromethyl)pyridin-3-yl)methoxy) -benzofuran-3-carboxamide] came in with an IC50 of under 1 µM.

In turn, `Cc1oc2ccc(OCc3cccnc3C(F)F)cc2c1C(=O)NC1(CO)CCOCC1` [compound 343, 5-((2-(difluoromethyl)pyridin-3-yl)methoxy)-N-(4-(hydroxymethyl)tetrahydro-2H-pyran-4-yl)-2-methylbenzofuran-3-carboxamide] came in with an IC50 (PS 50 μM, cpds 300-399) of under 1 µM.

`COc1ncccc1COc1ccc2oc(C)c(C(=O)NC3(C(N)=O)CC3)c2c1` [compound 480, N-(1-carbamoylcyclopropyl)-5-((2-methoxypyridin-3-yl)methoxy)-2-methylbenzofuran-3-carboxamide] returned an IC50 under setting [3] of under 1 µM.

`Cc1oc2ccc(OCc3c[nH]nc3C(F)(F)F)cc2c1C(=O)NC1(CO)CCNC1=O` (single isomer, unassigned) [730-En 1, N-(3-(Hydroxymethyl)-2-oxopyrrolidin-3-yl)-2-methyl-5-((3-(trifluoromethyl)-1H-pyrazol-4-yl)methoxy)benzofuran-3-carboxamide] yielded an IC50 under setting [4] of under 1 µM.

Consider `COc1ncccc1COc1ccc2oc(C)c(C(=O)NC3(CO)COC3)c2c1` [compound 528, N-(3-(hydroxymethyl)oxetan-3-yl)-5-((2-methoxypyridin-3-yl)methoxy)-2-methylbenzofuran-3-carboxamide], for which the IC50 under setting [2] is under 1 µM.

Under setting [1], `Cc1cccc(COc2ccc3oc(C)c(C(=O)N[C@H]4CCNC4)c3c2)n1` [compound 029, (S)-2-methyl-5-((6-methylpyridin-2-yl)methoxy)-N-(pyrrolidin-3-yl)benzofuran-3-carboxamide] registered an IC50 of under 1 µM.

As for `Cc1ncccc1COc1ccc2oc(C)c(C(=O)N[C@@H](CO)C(N)=O)c2c1` [compound 284, (S)-N-(1-amino-3-hydroxy-1-oxopropan-2-yl)-2-methyl-5-((2-methylpyridin-3-yl)methoxy)benzofuran-3-carboxamide], the IC50 (PS 50 μM, cpds 200-299) was under 1 µM.

For the molecule `Cc1ncc(COc2ccc3oc(C)c(C(=O)NC4CCOCC4(F)F)c3c2)s1` (single isomer, unassigned) [cpd 724-En 2], the IC50 under setting [4] lay within 1 to 20 µM.

Regarding `Cc1ncsc1COc1ccc2oc(C)c(C(=O)Nc3cnn(C)c3)c2c1` [compound 152, 2-methyl-N-(1-methyl-1H-pyrazol-4-yl)-5-((4-methylthiazol-5-yl)methoxy)benzofuran-3-carboxamide], under setting [1], the IC50 is under 1 µM.

In turn, `Cc1ncsc1COc1ccc2oc(C)c(C(=O)NC3CC4(COC4)C3)c2c1` [compound 156, 2-methyl-5-((4-methylthiazol-5-yl)methoxy)-N-(2-oxaspiro[3,3]heptan-6-yl)benzofuran-3-carboxamide] returned an IC50 under setting [1] of under 1 µM.

In turn, `Cc1ncc(COc2ccc3oc(C)c(C(=O)N[C@H](C(N)=O)[C@@H](C)O)c3c2)o1` [compound 375, N-((2S,3R)-1-amino-3-hydroxy-1-oxobutan-2-yl)-2-methyl-5-((2-methyloxazol-5-yl)methoxy)benzofuran-3-carboxamide] returned an IC50 (PS 50 μM, cpds 300-399) of under 1 µM.

On to `Cc1ncc(COc2ccc3oc(C)c(C(=O)NC4(COC(F)F)CC4)c3c2)s1` [compound 399, N-(1-((difluoromethoxy)methyl)cyclopropyl)-2-methyl-5-((2-methylthiazol-5-yl)methoxy)benzofuran-3-carboxamide], for which the IC50 (PS 50 μM, cpds 300-399) is under 1 µM.

Consider `Cc1oc2ccc(OCc3ccc(F)cn3)cc2c1C(=O)N[C@H](C(N)=O)[C@@H](C)O` [compound 696, N-((2S,3R)-1-amino-3-hydroxy-1-oxobutan-2-yl)-5-((5-fluoropyridin-2-yl)methoxy)-2-methylbenzofuran-3-carboxamide], for which the IC50 under setting [4] is under 1 µM.

Under setting [2], `Cc1oc2ccc(OCc3ccccn3)cc2c1C(=O)NC1(C(N)=O)COC1` [compound 581, N-(3-carbamoyloxetan-3-yl)-2-methyl-5-(pyridin-2-ylmethoxy)benzofuran-3-carboxamide] registered an IC50 of under 1 µM.

`Cc1nc(C)c(COc2ccc3oc(C)c(C(=O)NC4CCNCC4(F)F)c3c2)s1` (single isomer, unassigned) [cpd 563-En 1] displayed an IC50 under setting [2] of under 1 µM.

Take `CNC(=O)C1(NC(=O)c2c(C)oc3ccc(OCc4scnc4C)cc23)COC1` [compound 324, 2-methyl-N-(3-(methylcarbamoyl)oxetan-3-yl)-5-((4-methylthiazol-5-yl)methoxy)benzofuran-3-carboxamide]: the IC50 (PS 50 μM, cpds 300-399) is under 1 µM.

Molecule `Cc1oc2ccc(OCc3cccnc3)cc2c1C(=O)NC1(CO)CCOCC1` [compound 625, N-(4-(hydroxymethyl)tetrahydro-2H-pyran-4-yl)-2-methyl-5-(pyridin-3-ylmethoxy)benzofuran-3-carboxamide] registered an IC50 (PS (50 μM) stimulated, cpds. 608-666) of under 1 µM.

Regarding `Cc1ncc(COc2ccc3oc(C)c(C(=O)NC4(C(F)F)CCC4)c3c2)s1` [compound 683, N-(1-(Difluoromethyl)cyclobutyl)-2-methyl-5-((2-methylthiazol-5-yl)methoxy)benzofuran-3-carboxamide], the IC50 under setting [4] is under 1 µM.

These data come from patent publication US12209081B2 (Katholieke Universiteit Leuven, priority 2020, dated 2025).
